Measurements reported in patent US10138229B2, “Heteroaromatic compounds as BTK inhibitors” (Boehringer Ingelheim International GmbH, priority 2012, dated 2018).

Each molecule was assayed against full-length human His-tagged BTK (Homo sapiens (Human), UniProt Q06187) (assay: BTK Assay (HTRF, Cisbio KinEASE-TK)). Details: 6 nM BTK, 30 uM ATP, 15 min preincubation.
Assay type: biochemical
Experimental: An HTRF assay (Cisbio KinEASE-TK cat #62TKOPEC) was performed to quantitate the ability of test compounds to inhibit BTK mediated phosphorylation of substrate. Assays were assembled in 384 well plates where 6 nM of full-length human His-tagged BTK (Life Technologies cat # PV3587) and test compound at varying concentrations were preincubated for 15 minutes at 28° C. Then, 1 uM of TK substrate-biotin and 30 uM ATP were added and incubated for an additional 30 minutes at 28° C.

Chain of full-length human His-tagged BTK (Q06187 whole entry): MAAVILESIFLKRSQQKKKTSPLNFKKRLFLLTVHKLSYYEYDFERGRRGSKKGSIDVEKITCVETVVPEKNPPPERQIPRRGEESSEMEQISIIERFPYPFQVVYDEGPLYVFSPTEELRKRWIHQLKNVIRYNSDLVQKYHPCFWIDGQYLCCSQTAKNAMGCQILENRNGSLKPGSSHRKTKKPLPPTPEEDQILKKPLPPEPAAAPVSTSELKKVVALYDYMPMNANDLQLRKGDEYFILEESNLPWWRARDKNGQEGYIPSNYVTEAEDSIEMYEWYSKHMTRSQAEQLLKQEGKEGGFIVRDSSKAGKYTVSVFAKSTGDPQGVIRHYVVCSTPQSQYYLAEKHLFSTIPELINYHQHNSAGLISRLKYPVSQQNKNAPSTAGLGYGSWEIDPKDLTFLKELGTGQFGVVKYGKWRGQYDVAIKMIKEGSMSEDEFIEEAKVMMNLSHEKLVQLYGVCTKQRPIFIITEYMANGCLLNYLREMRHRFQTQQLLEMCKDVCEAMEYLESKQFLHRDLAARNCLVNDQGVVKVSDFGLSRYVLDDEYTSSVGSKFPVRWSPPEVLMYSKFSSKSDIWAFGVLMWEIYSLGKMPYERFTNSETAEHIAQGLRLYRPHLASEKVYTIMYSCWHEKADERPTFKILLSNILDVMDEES

Row | IC50 | SMILES
1 | 4.9 nM | C=CC(=O)N1CC[C@]2(C1)C[C@H](n1cc(C(N)=O)c(-c3ccc(Oc4ccccc4)cc3)n1)C2 [Example 40]
2 | 0.73 nM | CC#CC(=O)N1CC2(CC(n3nc(-c4ccc(Oc5ccccc5)cc4)c(C(N)=O)c3N)C2)C1 [Example 41]
3 | 1.2 nM | C=CC(=O)N1CCC[C@@H](c2nc(-c3ccc(Oc4ccccc4)cc3)c(C(N)=O)[nH]2)C1 [Example 46]
4 | 2.1 nM | CC#CC(=O)N1CC[C@]2(C1)C[C@@H](c1nc(-c3ccc(Oc4ccccc4)cc3)c(C(N)=O)s1)C2 [Example 78]
5 | 0.79 nM | C=CC(=O)N1CC[C@]2(C1)C[C@@H](n1nc(-c3ccc(Oc4ccccc4)cc3)c(C(N)=O)c1N)C2 [Example 81]
6 | 13 nM | CC#CC(=O)N1CC2(CC(n3nc(-c4ccc(OC(C)C)cc4)c(C(N)=O)c3N)C2)C1 [Example 106]
7 | 3.3 nM | CC#CC(=O)N1CC2(CC(n3nc(-c4ccc(OCCC)cc4)c(C(N)=O)c3N)C2)C1 [Example 107]
8 | 6.7 nM | C=CC(=O)N1CC2(CC(n3nc(-c4ccc(OC5CC5)cc4)c(C(N)=O)c3N)C2)C1 [Example 112]
9 | 3.5 nM | CC#CC(=O)N1CC2(CC(n3nc(-c4ccc(OCC(F)(F)F)cc4)c(C(N)=O)c3N)C2)C1 [Example 115]
10 | 6.3 nM | CC#CC(=O)N1CC[C@]2(C1)C[C@H](n1nc(-c3ccc(OC)cc3Cl)c(C(N)=O)c1N)C2 [Example 158]
11 | 1.4 nM | CC#CC(=O)N1CC[C@]2(C1)C[C@H](n1nc(-c3ccc(OC(F)(F)F)cc3)c(C(N)=O)c1N)C2 [Example 160]
12 | 1.1 nM | CC#CC(=O)N1CC[C@]2(C1)C[C@H](n1nc(-c3ccc(OCCC)c(F)c3)c(C(N)=O)c1N)C2 [Example 161]
13 | 4.8 nM | C=CC(=O)N1CC[C@]2(C1)C[C@H](n1nc(-c3ccc(OCC(F)(F)F)cc3)c(C(N)=O)c1N)C2 [Example 163]
14 | 0.5 nM | CC#CC(=O)N1CC[C@]2(C1)C[C@H](n1nc(-c3ccc(OCC(F)(F)F)cc3)c(C(N)=O)c1N)C2 [Example 164]
15 | 15 nM | C=CC(=O)N1CC[C@]2(C1)C[C@H](n1nc(-c3ccc(OCCC)c(F)c3)c(C(N)=O)c1N)C2 [Example 165]

These molecules were tested against BTK (Homo sapiens (Human), UniProt Q06187) (assay: Inhibition of B-cell activation measured by CD69 expression in primary CD19+ cells). Details: primary CD19+ cells stimulated with anti-human IgD, CD69 expression by flow cytometry.
Assay type: cell-based
Experimental: Cells were collected and plated in a 96 flat bottom plate at a concentration of 2×10^5/well in RPMI media containing 10% FBS, rested for 1 hour at 37° c. Cells were treated with inhibitor in duplicates or vehicle control in 1% DMSO final concentration for 1 hour at 37° c., 5% CO2. […] B cells were analyzed by flow cytometry using a BD LSRII or BD FACsCanto Flow Cytometer. Viable cells were gated, and CD69 percentage was determined using FlowJo software.

Chain of BTK (Q06187 whole entry): as above

Row | IC50 | SMILES
16 | 20 nM | C=CC(=O)N1CC[C@]2(C1)C[C@H](n1cc(C(N)=O)c(-c3ccc(Oc4ccccc4)cc3)n1)C2 [Example 40]
17 | 1 nM | CC#CC(=O)N1CC2(CC(n3nc(-c4ccc(Oc5ccccc5)cc4)c(C(N)=O)c3N)C2)C1 [Example 41]
18 | 2 nM | C=CC(=O)N1CCC[C@@H](c2nc(-c3ccc(Oc4ccccc4)cc3)c(C(N)=O)[nH]2)C1 [Example 46]
19 | 2.5 nM | CC#CC(=O)N1CC[C@]2(C1)C[C@@H](c1nc(-c3ccc(Oc4ccccc4)cc3)c(C(N)=O)s1)C2 [Example 78]
20 | 0.9 nM | C=CC(=O)N1CC[C@]2(C1)C[C@@H](n1nc(-c3ccc(Oc4ccccc4)cc3)c(C(N)=O)c1N)C2 [Example 81]
21 | 30 nM | CC#CC(=O)N1CC2(CC(n3nc(-c4ccc(OC(C)C)cc4)c(C(N)=O)c3N)C2)C1 [Example 106]
22 | 8.2 nM | CC#CC(=O)N1CC2(CC(n3nc(-c4ccc(OCCC)cc4)c(C(N)=O)c3N)C2)C1 [Example 107]
23 | 41 nM | C=CC(=O)N1CC2(CC(n3nc(-c4ccc(OC5CC5)cc4)c(C(N)=O)c3N)C2)C1 [Example 112]
24 | 7.8 nM | CC#CC(=O)N1CC2(CC(n3nc(-c4ccc(OCC(F)(F)F)cc4)c(C(N)=O)c3N)C2)C1 [Example 115]
25 | 58 nM | CC#CC(=O)N1CC[C@]2(C1)C[C@H](n1nc(-c3ccc(OC)cc3Cl)c(C(N)=O)c1N)C2 [Example 158]
26 | 4.5 nM | CC#CC(=O)N1CC[C@]2(C1)C[C@H](n1nc(-c3ccc(OC(F)(F)F)cc3)c(C(N)=O)c1N)C2 [Example 160]
27 | 2.1 nM | CC#CC(=O)N1CC[C@]2(C1)C[C@H](n1nc(-c3ccc(OCCC)c(F)c3)c(C(N)=O)c1N)C2 [Example 161]
28 | 15 nM | C=CC(=O)N1CC[C@]2(C1)C[C@H](n1nc(-c3ccc(OCC(F)(F)F)cc3)c(C(N)=O)c1N)C2 [Example 163]
29 | 1.5 nM | CC#CC(=O)N1CC[C@]2(C1)C[C@H](n1nc(-c3ccc(OCC(F)(F)F)cc3)c(C(N)=O)c1N)C2 [Example 164]
30 | 10 nM | C=CC(=O)N1CC[C@]2(C1)C[C@H](n1nc(-c3ccc(OCCC)c(F)c3)c(C(N)=O)c1N)C2 [Example 165]

The molecules below were run against EGFR (Homo sapiens (Human), UniProt P00533) (assay: Inhibition of EGFR autophosphorylation in A431 human epithelial cells stimulated with EGF). Details: EGF 60 ng/mL, phospho EGFR, read-out: A431 p-EGFR IC50.
Assay type: cell-based
Excerpt: The compounds described herein show a range of selectivities against EGFR as measured in cellular assays (BTK activity measured by CD69 expression in primary CD19^+ cells; EGFR activity measured by EGFR phosphorylation in A431 cells).
Inhibition of EGFR Autophosphorylation in A431 Human Epithelial Cells Stimulated with Epithelial Growth Factor
A431 cells (ATCC # CRL-1555 FZ) are thawed and plated in DMEM containing 10% FBS in a 384-well tissue culture treated plate at 15,000 cells/well. After incubating for 24 hours at 37° C., 5% CO2, the cells are treated with test compound (1% DMSO final concentration) and incubated for 16 hours at 37° C., 5% CO2. EGF (Millipore, 01-107) is added at a final concentration of 60 ng/mL and incubated for 10 minutes. The medium is removed, the cells are lysed, and phospho EGFR is measured (Meso Scale Diagnostics, N31CB-1).

Chain of EGFR (P00533 25-1210): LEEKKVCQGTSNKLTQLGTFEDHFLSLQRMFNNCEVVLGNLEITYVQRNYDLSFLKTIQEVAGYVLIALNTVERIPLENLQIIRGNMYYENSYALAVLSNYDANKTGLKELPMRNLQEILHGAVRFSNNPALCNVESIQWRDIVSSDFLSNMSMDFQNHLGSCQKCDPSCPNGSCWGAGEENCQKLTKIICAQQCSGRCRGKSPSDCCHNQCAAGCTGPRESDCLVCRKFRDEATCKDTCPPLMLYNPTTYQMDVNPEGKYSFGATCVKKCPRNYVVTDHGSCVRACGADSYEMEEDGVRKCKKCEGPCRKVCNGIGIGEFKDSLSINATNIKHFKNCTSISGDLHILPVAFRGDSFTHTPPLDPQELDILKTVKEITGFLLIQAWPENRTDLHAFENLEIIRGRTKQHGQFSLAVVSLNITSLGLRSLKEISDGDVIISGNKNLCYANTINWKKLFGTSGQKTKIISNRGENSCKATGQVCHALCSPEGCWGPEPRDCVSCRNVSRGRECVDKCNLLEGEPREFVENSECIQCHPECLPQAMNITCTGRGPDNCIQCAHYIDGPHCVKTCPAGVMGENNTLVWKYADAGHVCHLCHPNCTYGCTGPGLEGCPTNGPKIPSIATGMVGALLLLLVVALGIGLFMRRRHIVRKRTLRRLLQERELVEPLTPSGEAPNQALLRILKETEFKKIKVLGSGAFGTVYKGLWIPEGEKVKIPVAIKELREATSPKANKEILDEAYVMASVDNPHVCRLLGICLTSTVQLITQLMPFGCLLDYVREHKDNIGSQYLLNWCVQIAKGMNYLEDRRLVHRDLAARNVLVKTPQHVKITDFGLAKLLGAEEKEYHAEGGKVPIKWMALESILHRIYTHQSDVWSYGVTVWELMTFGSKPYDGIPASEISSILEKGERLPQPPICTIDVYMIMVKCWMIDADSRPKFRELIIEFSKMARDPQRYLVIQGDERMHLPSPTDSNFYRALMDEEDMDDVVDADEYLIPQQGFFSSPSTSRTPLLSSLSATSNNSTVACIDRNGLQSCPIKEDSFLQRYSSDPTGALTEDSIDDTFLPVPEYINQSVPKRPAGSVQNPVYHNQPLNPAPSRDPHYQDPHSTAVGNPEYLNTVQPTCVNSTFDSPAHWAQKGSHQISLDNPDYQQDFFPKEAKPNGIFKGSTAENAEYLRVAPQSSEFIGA

Row | IC50 | SMILES
31 | > 10000 nM | C=CC(=O)N1CC[C@]2(C1)C[C@H](n1cc(C(N)=O)c(-c3ccc(Oc4ccccc4)cc3)n1)C2 [Example 40]
32 | 430 nM | CC#CC(=O)N1CC2(CC(n3nc(-c4ccc(Oc5ccccc5)cc4)c(C(N)=O)c3N)C2)C1 [Example 41]
33 | 120 nM | C=CC(=O)N1CCC[C@@H](c2nc(-c3ccc(Oc4ccccc4)cc3)c(C(N)=O)[nH]2)C1 [Example 46]
34 | 1800 nM | CC#CC(=O)N1CC[C@]2(C1)C[C@@H](c1nc(-c3ccc(Oc4ccccc4)cc3)c(C(N)=O)s1)C2 [Example 78]
35 | 790 nM | C=CC(=O)N1CC[C@]2(C1)C[C@@H](n1nc(-c3ccc(Oc4ccccc4)cc3)c(C(N)=O)c1N)C2 [Example 81]
36 | > 10000 nM | CC#CC(=O)N1CC2(CC(n3nc(-c4ccc(OC(C)C)cc4)c(C(N)=O)c3N)C2)C1 [Example 106]
37 | 4200 nM | CC#CC(=O)N1CC2(CC(n3nc(-c4ccc(OCCC)cc4)c(C(N)=O)c3N)C2)C1 [Example 107]
38 | 5800 nM | C=CC(=O)N1CC2(CC(n3nc(-c4ccc(OC5CC5)cc4)c(C(N)=O)c3N)C2)C1 [Example 112]
39 | 6400 nM | CC#CC(=O)N1CC2(CC(n3nc(-c4ccc(OCC(F)(F)F)cc4)c(C(N)=O)c3N)C2)C1 [Example 115]
40 | > 10000 nM | CC#CC(=O)N1CC[C@]2(C1)C[C@H](n1nc(-c3ccc(OC)cc3Cl)c(C(N)=O)c1N)C2 [Example 158]
41 | 1200 nM | CC#CC(=O)N1CC[C@]2(C1)C[C@H](n1nc(-c3ccc(OC(F)(F)F)cc3)c(C(N)=O)c1N)C2 [Example 160]
42 | 400 nM | CC#CC(=O)N1CC[C@]2(C1)C[C@H](n1nc(-c3ccc(OCCC)c(F)c3)c(C(N)=O)c1N)C2 [Example 161]
43 | 5200 nM | C=CC(=O)N1CC[C@]2(C1)C[C@H](n1nc(-c3ccc(OCC(F)(F)F)cc3)c(C(N)=O)c1N)C2 [Example 163]
44 | 420 nM | CC#CC(=O)N1CC[C@]2(C1)C[C@H](n1nc(-c3ccc(OCC(F)(F)F)cc3)c(C(N)=O)c1N)C2 [Example 164]
45 | 3700 nM | C=CC(=O)N1CC[C@]2(C1)C[C@H](n1nc(-c3ccc(OCCC)c(F)c3)c(C(N)=O)c1N)C2 [Example 165]
